Test results from article PMC5081312, “Antifouling phenyl ethers and other compounds from the invertebrates and their symbiotic fungi collected from the South China Sea” (AMB Express, 2016).
Read-outs that look alike come from different tables or passages of the source. Starred links: 1 amine or outer side, 2 acyl side, 3 side chain; linkers in the order of their positions; H or OH if unused. Non-standard residues stand in square brackets, D forms with d. Residues, ends and D or L forms follow the SMILES beside them. X1 = O=C(c1cc(O)ccc1N[*:1])[*:2]

Legend:
[1] = in vivo; settings: Artemia salina (brine shrimp), in vivo
Description: The brine shrimp lethality bioassay on Artemia salina was performed to predict the toxicity of the compounds. The test was conducted using 24-well plate as described previously according to standard protocols (Solis et al. [1993]; Meyer et al. [1982]). The wells containing FSW-DMSO (v/v 1:1000) served as the negative controls. Adriamycin was used as a positive control. There were three replicate wells per concentration, and each bioassay experiment had three replicates using three different batches of brine shrimp.

[2] = Anti-larval settlement bioassay (antifouling activity and larval toxicity); assay type: in vivo; settings: Balanus (Amphibalanus) amphitrite (barnacle cyprid larvae), in vivo, cyprids of B. amphitrite, 48 h at 28 °C, concentration where 50% of larvae were dead; for LC50 at 48 h: other: larvae immersed in test solution
Description: (§1) The newly released nauplii were screened with the aperture of 90 μm. The newly released nauplii were raised in filtered seawater (FSW) at 28 °C with mild aeration and fed with Chaetoceros gracilis Schutt at 1 × 10^6 cells ml^−1. The nauplius larvae transformed into cyprids (ready to attach and metamorphose) after 3.5 days. Newly transformed cyprids were kept in filtered seawater at 4 °C overnight before being used in the anti-larval settlement bioassay.
(§2) The antifouling activity was evaluated as larval settlement inhibition against the cyprids of barnacle B. amphitrite using 24-well polystyrene plates (Nunc, Naperville, CA, USA). Each compound was dissolved in a stock solution of DMSO with the concentration of 50 mg ml^−1, and then diluted 1000 times with FSW to 50 μg ml^−1. The compound was further transferred into FSW to make up the following test solution with the concentrations ranging from 25 to 0.50 μg ml^−1. One millilitre of the test solution and 16–20 larvae were allocated to each well of the 24-well plate. Each concentration had three replicate wells. The plates were cultivated in darkness for 48 h at 28 °C. The effects of the test compounds against the larvae settlement were determined by examining the plates under a dissecting microscope to check for (1) settled larvae (attached and metamorphosed), (2) swimming larvae, as well as (3) any possible toxic effects of the treatments (dead and paralyzed). The number of the settled larvae was expressed as a percentage of the total number of larvae per well. Each compound was tested by triplicate experiments using three different batches of larvae.
(§3) The EC50 and LC50 values of each compound were calculated according to the records of anti-larval settlement experiments. […] Then a concentration–response curve was plotted and a tread line was set up.

[3] = system: cyprids of barnacle B. amphitrite; assay: as above; assay type: in vivo; settings: for EC50: read-out: EC50 (larval settlement inhibition); for LC50/EC50 ratio (therapeutic ratio): B. amphitrite cyprids, ratio >15 considered non-toxic; for LC50: concentration where 50% of larvae were dead
Description: as §1, §2, §3

[4] = LC50 (brine shrimp lethality), Artemia salina
[5] = Amphibalanus amphitrite, 48 h, cyprids of B. amphitrite, 48 h at 28 °C, concentration where 50% of larvae were inhibited to settle vs negative control
[6] = cyprids of B. amphitrite, 48 h at 28 °C, concentration where 50% of larvae were inhibited to settle vs negative control
[7] = Amphibalanus amphitrite, cyprids of B. amphitrite, 48 h at 28 °C, concentration where 50% of larvae were inhibited to settle vs negative control
[8] = cyprids of B. amphitrite, 48 h at 28 °C

Row | Compound | LC50 at 48 h [2] [µM] | EC50 [3, 5] [µM] | LC50/EC50 ratio (therapeutic ratio) [3] | EC50 [3, 6] [µM] | LC50 [3, 8] [µM] | further results
1 | COc1cccc2c1C(=O)c1c(O)c3c(c(O)c1C2=O)C[C@@](O)(C(=O)CO)C[C@@H]3O[C@H]1C[C@H](N)[C@H](O)[C@H](C)O1 [Adriamycin, reference compound] | – | – | – | – | – | LC50 [1]: 12 µM
2 | Cc1cc(O)cc(Oc2cc(C)cc(O)c2)c1 [compound 1, Diorcinol] | > 217 | 32.6 | >6.67 | – | – | LC50 [1, 4]: 126 µM
3 | Cc1cc(O)cc(Oc2cc(C)cc(O)c2O)c1 [compound 2, Cordyol C] | > 203 | 57.3 | >3.54 | – | – | LC50 [1, 4]: 126 µM
4 | COc1cc(C)cc(Oc2cc(C)cc(O)c2)c1 [compound 4, Cordyol E] | > 205 | 31 | >6.61 | – | – | LC50 [1, 4]: 41 µM
5 | COc1cc(C)cc(Oc2cc(C)cc(OC)c2O)c1O [compound 5, 3,3′-O-dimethylviolaceol-I] | > 172 | 18.4 | >9.35 | – | – | LC50 [1, 4]: 172 µM
6 | COc1cc(C)cc(Oc2cc(C)cc(OC)c2OC)c1O [compound 6, Cordyol D] | > 164 | 18.2 | >9.01 | – | – | LC50 [1, 4]: 164 µM
7 | CCCOc1cc(C)cc(Oc2cc(C)cc(O)c2)c1 [compound 7, 3-O-propyl-diorcinol] | 112 | < 10 | 11.4 | 9.82 | – | –
8 | CCCCCOc1cc(C)cc(Oc2cc(C)cc(O)c2)c1 [compound 8, 3-O-pentyl-diorcinol] | > 167 | 27.9 | >5.99 | – | – | –
9 | CC(=O)Oc1cc(C)cc(Oc2cc(C)cc(O)c2)c1 [compound 9, 3-O-acetyl-diorcinol] | 64.3 | – | – | – | – | –
10 | Cc1cc(O)cc(Oc2cc(C)cc(OC(=O)c3ccccc3)c2)c1 [compound 10, 3-O-benzoyl-diorcinol] | > 150 | 12.6 | >11.9 | – | – | LC50 [1, 4]: > 150 µM
11 | CC(=O)Oc1cc(C)cc(Oc2cc(C)cc(OC(C)=O)c2)c1 [compound 11, 3,3′-O-diacetyl-diorcinol] | 49.4 | – | – | – | – | –
12 | CCCCCOc1cc(C)cc(Oc2cc(C)cc(OCCCCC)c2)c1 [compound 12, 3,3′-O-dipentyl-diorcinol] | > 135 | 12.2 | >11.1 | – | – | –
13 | Cc1c(Br)c(O)c(Br)c(Oc2c(Br)c(C)c(Br)c(O)c2Br)c1Br [compound 13, 2,4,6,2′,4′,6′-Hexabromo-diorcinol] | – | – | – | – | – | LC50 [1]: 35.6 µM; LC50 [2]: 22 µM; EC50 [3, 7]: 0.71 µM
14 | COC(=O)c1c(C)c(Br)c(Oc2c(Br)c(C)c(Br)c(O)c2Br)c(Br)c1O [compound 14, 2,6,2′,4′,6′-Pentabromo-4-methoxycarbonyl-diorcinol] | – | – | – | – | – | LC50 [1]: > 73.3 µM; LC50 [2]: 29.3 µM; EC50 [3, 7]: 1.17 µM
15 | Cc1cc(O)cc(Oc2cc(C)cc(OC(=O)c3ccc(Br)cc3)c2)c1 [compound 15, 3-O-p-Bromobenzoyl-diorcinol] | 60.5 | 2.42 | – | – | – | LC50 [1, 4]: > 121 µM
16 | Cc1cc(C=O)c2c(C)ccc(C(C)C)cc1-2 [compound 16, 1-Formylguaiazulene] | 221 | 42 | – | – | – | –
17 | Cc1cc(C=O)c2c(C)cc3c(cc1-2)[C@@H](C)CO3 [compound 18, Ochracenoid A] | 208 | 83.3 | – | – | – | –
18 | CC1=CC(=O)c2c(C)cc3oc(=O)c(C)c-3cc21 [compound 21, Ketolactone] | > 208 | > 104 | – | – | – | –

Row | Compound | LC50 at 48 h [2] [µM] | EC50 [3, 5] [µM] | LC50/EC50 ratio (therapeutic ratio) [3] | EC50 [3, 6] [µM] | LC50 [3, 8] [µM] | further results
19 | C/C(=C\[C@H](O)C[C@@H](C)CCCc1ccoc1)CCCc1ccoc1 [compound 22, Furospongin-1] | 153 | 6.05 | 25.2 | 6.06 | – | inhibition of larval settlement in preliminary screening ([3]; B. amphitrite, at 25.0 μg ml^−1): completely inhibited
20 | COc1cc(O)c(-c2c3c(c(O)c4c(OC)cc(O)cc24)C(=O)C=C(C)C3=O)c2cc3c(c(O)c12)C(=O)C[C@@](C)(O)C3 [compound 37, Asperinine A] | – | – | >2.88 | 30.5 | > 87.7 | –
21 | COc1cc(O)c(-c2c3c(c(O)c4c(OC)cc(O)cc24)C(=O)C=C(C)C3=O)c2cc3c(c(O)c12)C(=O)C[C@@](C)(O)C3 [compound 38, Asperinine B] | – | – | >2.22 | 39.5 | > 87.7 | –
22 | CC[C@H](O)c1cc(O)c2c(c1)C(=O)c1cc(O)cc(O)c1C2=O [compound 39, Rhodoptilometrin] | – | – | 13.4 | 11.9 | 159 | –
23 | C=CC(C)(C)c1[nH]c2ccc(CC=C(C)C)cc2c1C=C1NC(=O)C2(C=C3c4cc(O)cc(OC)c4C(=O)c4c(O)cc(C)c(c43)O2)NC1=O (stereo not shown) [compound 41, 7-O-methylvariecolortide A] | – | – | – | > 74.5 | > 74.5 | –
24 | C=CC(C)(C)c1[nH]c2ccccc2c1/C=C1\NC(=O)C2(C=C3c4cc(O)cc(O)c4C(=O)c4c(O)cc(C)c(c43)O2)NC1=O (stereo not shown) [compound 42, Variecolortide B] | – | – | – | > 84.9 | > 84.9 | –
25 | C=CC(C)(C)c1[nH]c2c(CC=C(C)C)cc(CC=C(C)C)cc2c1C[C@@H]1NC(=O)[C@H](C)NC1=O [compound 44, Echinulin] | – | – | – | – | – | LC50 [2]: > 108 µM; EC50 ([3]; Amphibalanus amphitrite, 48 h): > 54.2 µM
26 | CO[C@H]1[C@@H](O)CC/C(C)=C/[C@H]2C=C(C)[C@@H](C)[C@H]3[C@H](CC(C)C)NC(=O)[C@]32C(=O)C[C@@H]1O [compound 46, Aspochalasin K] | – | – | >6.65 | – | – | LC50 [2]: > 115 µM; EC50 [3, 7]: 17.3 µM
27 | CC1=C[C@@H]2/C=C(\C)CC[C@H](O)[C@H](O)[C@@H](O)CC(=O)[C@]23C(=O)N[C@@H](CC(C)C)[C@@H]3[C@@H]1C [compound 47, Aspochalasin E] | – | – | >3.70 | – | – | LC50 [2]: > 119 µM; EC50 [3, 7]: 32.2 µM
28 | COc1cc(O)cc(C)c1C(=O)O[C@@H]1[C@H](O)[C@@H](CO)O[C@H]1n1ccc(=O)[nH]c1=O [compound 48, Kipukasin H] | – | – | – | > 61.3 | > 123 | –
29 | COc1cc(C)c(C(=O)O[C@@H]2[C@H](O)[C@@H](CO)O[C@H]2n2ccc(=O)[nH]c2=O)c(OC)c1 [compound 49, Kipukasin E] | – | – | – | > 59.2 | > 59.2 | –
30 | COc1cc(C)c(C(=O)O[C@H]2[C@@H](O)[C@H](n3ccc(=O)[nH]c3=O)O[C@@H]2CO)c(OC)c1 [compound 50, Kipukasin D] | – | – | – | > 59.2 | > 59.2 | –
31 | COc1cc(C)c(C(=O)O[C@@H]2[C@H](OC(C)=O)[C@@H](COC(C)=O)O[C@H]2n2ccc(=O)[nH]c2=O)c(OC)c1 [compound 51, Diacetylkipukasin E] | – | – | >2.22 | 44.5 | > 98.8 | –
32 | COc1cc(C)c(C(=O)O[C@H]2[C@@H](OC(C)=O)[C@H](n3ccc(=O)[nH]c3=O)O[C@@H]2COC(C)=O)c(OC)c1 [compound 52, Diacetylkipukasin D] | – | – | – | > 49.4 | > 98.8 | –
33 | COC(=O)c1ccccc1NC(=O)[C@H](CC[S+](C)[O-])NC(=O)c1cnc2c(n1)c(=O)n(C)c(=O)n2C (stereo partly shown) [compound 53, Penilumamide] | – | – | – | > 96.9 | > 96.9 | –
34 | C[C@H](NC(=O)c1cnc2c(n1)c(=O)n(C)c(=O)n2C)C(=O)Nc1ccccc1C(N)=O [compound 54, Penilumamide D] | – | – | – | > 58.8 | > 58.8 | –
35 | C[C@@H]1NC(=O)[C@H](Cc2ccc(O)cc2)NC(=O)c2cc(O)ccc2NC(=O)[C@@H]2CCCN2C(=O)[C@H](C)NC1=O [compound 55, Asperpeptide A] (cyclo(AAP[X1]Y)) | – | – | – | > 46.6 | > 46.6 | –
36 | Variecolortide C [compound 40] | – | – | – | > 82.9 | > 82.9 | –
